This note sets out measurements from US11634396B2 (priority 2021, dated 2023).

By IC50 is commonly meant the concentration needed to halve the response being measured.

The target in the assay is human mOR (Homo sapiens (Human), UniProt P35372). Briefly: cell-based. Here is the method:
CHO Tag-lite human mOR stable cell line from Cisbio (NCBI accession number: NM_000914.3, Bedford, Mass.) were seeded and grown to approximately 80% confluence in Ham F-12 with 10% FBS, 50 U/ml penicillin, 50 μg/ml streptomycin, 2 mM Hepes, and 1 mg/ml geneticin (Invitrogen, Carlsbad, Calif.). Cells were then harvested using accutase (Corning. Coming, N.Y.), centrifuged at 1300 RPM for 5 min, and plated at 5000 cells per 5 μL per well in a 5× dilution of stimulation buffer consisting of the HTRF cAMP Gi kit, water and IBMX at 0.5 mM (Cisbio, Bedford, Mass.) in white HTRF low volume 384 well plates (Cisbio, Bedford, Mass.). Plates were then incubated at 37° C. in 5% CO2 for 10 minutes. For the agonist assay, forskolin was added to a final concentration of 4 μM. […] Test compounds were dissolved in DMSO and water, and then serially diluted to working concentrations such that the concentration of DMSO was less than 0.1%. Diluted test compounds were added at 2.5 μL per well, and plates were incubated at 37° C., and 5% CO2 for 15 minutes, and then at room temperature for 15 minutes. Next 5 μl/well of cAMP Eu-cryptate and 5 μl/well of anti-cAMP-d2 (both diluted 1:20 in lysis buffer) were added, and plates were incubated at room temperature for 1 hour. Following incubation, plates were read in a Synergy Neo2 multi-mode reader (Biotek, Winooski, Vt.). […] For the agonist assay, data was normalized using the maximal DAMGO response. Measurements were performed in triplicate and the dose response was fit using nonlinear regression.

Where [1] appears, read: CHO Tag-lite human mOR stable cell line, forskolin 4 μM and DAMGO at EC90, read-out: mOR cAMP Antagonist Assay IC50.
Where [2] appears, read: read-out: mOR cAMP Antagonist Assay IC50.

Where two headings read alike, the source gives them in different places.

Sequence of human mOR (P35372 whole entry): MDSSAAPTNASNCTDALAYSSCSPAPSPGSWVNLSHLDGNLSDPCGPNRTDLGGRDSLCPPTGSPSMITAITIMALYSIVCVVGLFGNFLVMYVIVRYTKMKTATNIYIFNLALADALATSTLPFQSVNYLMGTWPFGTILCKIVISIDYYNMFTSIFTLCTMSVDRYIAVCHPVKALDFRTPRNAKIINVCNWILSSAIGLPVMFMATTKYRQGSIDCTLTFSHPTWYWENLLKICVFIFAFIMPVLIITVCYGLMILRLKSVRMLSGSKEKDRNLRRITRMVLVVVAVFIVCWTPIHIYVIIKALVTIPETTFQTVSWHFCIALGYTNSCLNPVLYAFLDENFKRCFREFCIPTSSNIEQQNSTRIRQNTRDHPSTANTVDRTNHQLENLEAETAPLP

On to `CN(C)[C@H](CNC(=O)C[C@@H](c1cncc(F)c1)C(C)(C)C)Cc1ccc(C(N)=O)c(F)c1` [Compound 63, 4-((S)-2-(dimethylamino)-3-((R)-3-(5-fluoropyridin-3-yl)-4,4-dimethylpentanamido)propyl)-2-fluorobenzamide], for which the IC50 under setting [1] was less than 300 nM.
With `CN(C)[C@H](CNC(=O)C[C@@H](CC1CC1)c1cncnc1)Cc1ccc(C(N)=O)c(F)c1` [Compound 64, 4-((S)-3-((R)-4-cyclopropyl-3-(pyrimidin-5-yl)butanamido)-2-(dimethylamino)propyl)-2-fluorobenzamide], the IC50 under setting [1] is less than 300 nM.
Consider `Cc1ncc([C@@H](CC(=O)NC[C@H](Cc2ccc(C(N)=O)c(F)c2)N(C)C)C2CC2)cn1` [Compound 67, 4-((S)-3-((S)-3-cyclopropyl-3-(2-methylpyrimidin-5-yl)propanamido)-2-(dimethylamino)propyl)-2-fluorobenzamide], for which the IC50 was more than 3000 nM.
For `CN(C)[C@H](CNC(=O)CC(c1ccc(Cl)cn1)C1(C(F)(F)F)CC1)Cc1ccc(C(N)=O)c(F)c1` (stereo partly drawn) [Compound 69, 4-((2S)-3-(3-(5-chloropyridin-2-yl)-3-(1-(trifluoromethyl)cyclopropyl)propanamido)-2-(dimethylamino)propyl)-2-fluorobenzamide], the IC50 was less than 300 nM.
For the molecule `CN(C)[C@H](CNC(=O)CC(c1ccncc1)C1(C(F)(F)F)CC1)Cc1ccc(C(N)=O)c(F)c1` (stereo partly drawn) [Compound 70, 4-[(2S)-2-(dimethylamino)-3-[3-(pyridin-4-yl)-3-[1-(trifluoromethyl)cyclopropyl]propanamido]propyl]-2-fluorobenzamide], the IC50 under setting [1] was more than 3000 nM.
For `CN(C)[C@H](CNC(=O)CC(c1ncccn1)C1(C(F)(F)F)CC1)Cc1ccc(C(N)=O)c(F)c1` (stereo partly drawn) [Compound 71, 4-[(2S)-2-(dimethylamino)-3-[3-(pyrimidin-2-yl)-3-[1-(trifluoromethyl)cyclopropyl]propanamido]propyl]-2-fluorobenzamide], the IC50 was less than 300 nM.
On the same count and under the same terms, the same measure for `CC(C)[C@H](CC(=O)NC[C@H](Cc1ccc(C(N)=O)c(F)c1)N(C)C)c1cccnc1` [Compound 78, 4-[(2S)-2-(dimethylamino)-3-[(3S)-4-methyl-3-(pyridin-3-yl)pentanamido]propyl]-2-fluorobenzamide]: more than 3000 nM; for `Cc1ncc([C@@H](CC(=O)NC[C@H](Cc2ccc(C(N)=O)cc2)N(C)C)C2(C(F)(F)F)CC2)cn1` [Compound 79, 4-((S)-2-(dimethylamino)-3-((R)-3-(2-methylpyrimidin-5-yl)-3-(1-(trifluoromethyl)cyclopropyl)propanamido)propyl)benzamide]: less than 300 nM; for `CN[C@H](CNC(=O)C[C@@H](c1ccccc1)C1(C(F)(F)F)CC1)Cc1ccc(C(N)=O)cc1` [Compound 82, 4-((S)-2-(methylamino)-3-((S)-3-phenyl-3-(1-(trifluoromethyl)cyclopropyl)propanamido)propyl)benzamide]: more than 3000 nM.
In the case of `CN(C)[C@H](CNC(=O)C[C@H](c1ccncc1)C1(C(F)(F)F)CC1)Cc1ccc2[nH]c(=O)ccc2c1` [Compound 103, (R)-N-((S)-2-(dimethylamino)-3-(2-oxo-1,2-dihydroquinolin-6-yl)propyl)-3-(pyridin-4-yl)-3-(1-(trifluoromethyl)cyclopropyl) propanamide], the IC50 under setting [2] was more than 3000 nM.
Consider `CNC(=O)c1cc(F)c(C[C@@H](CNC(=O)C[C@H](c2cnc(C)nc2)C2(C(F)(F)F)CC2)N(C)C)c(F)c1` [Compound 105, 4-((S)-2-(dimethylamino)-3-((R)-3-(2-methylpyrimidin-5-yl)-3-(1-(trifluoromethyl)cyclopropyl)propanamido)propyl)-3,5-difluoro-N-methylbenzamide], for which the IC50 is 300 to 3000 nM.
Regarding `CNC(=O)c1cc(C)c(C[C@@H](CNC(=O)C[C@H](c2ccc(Cl)cc2)C2(C(F)(F)F)CC2)N(C)C)c(C)c1` [Compound 106, 4-((S)-3-((R)-3-(4-chlorophenyl)-3-(1-(trifluoromethyl)cyclopropyl)propanamido)-2-(dimethylamino)propyl)-3,5-trimethylbenzamide], the IC50 under setting [1] was more than 3000 nM.
Turning to `CNC(=O)c1ccc(C[C@@H](CNC(=O)C[C@H](c2ccc(Cl)cc2)C2(C(F)(F)F)CC2)N(C)C)cc1F` [Compound 107, 4-((S)-3-((R)-3-(4-chlorophenyl)-3-(1-(trifluoromethyl)cyclopropyl)propanamido)-2-(dimethylamino)propyl)-2-fluoro-N-methylbenzamide], the IC50 is less than 300 nM.
On to `CNC(=O)c1cc(C)c(C[C@@H](CNC(=O)C[C@@H](CC(C)C)c2ccccn2)N(C)C)c(C)c1` [Compound 108, 4-((S)-2-(dimethylamino)-3-((R)-5-methyl-3-(pyridin-2-yl)hexanamido)propyl)-N,3,5-trimethylbenzamide], for which, under setting [1], the 50% inhibitory concentration (IC50) is more than 3000 nM.
Same read-out and setting: the figure for `CNC(=O)c1ccc(C[C@@H](CNC(=O)C[C@@H](c2ccncc2)C2(C(F)(F)F)CC2)N(C)C)c(Cl)c1F` [Compound 110, 3-chloro-4-((S)-2-(dimethylamino)-3-((S)-3-(pyridin-4-yl)-3-(1-(trifluoromethyl)cyclopropyl)propanamido)propyl)-2-fluoro-N-methylbenzamide] is more than 3000 nM.
As for `CNC(=O)c1ccc(C[C@@H](CNC(=O)CC(c2ncc(Cl)cn2)C2(C(F)(F)F)CC2)N(C)C)c(Cl)c1F` (stereo partly drawn) [Compound 112, 3-chloro-4-((2S)-3-(3-(5-chloropyrimidin-2-yl)-3-(1-(trifluoromethyl)cyclopropyl)propanamido)-2-(dimethylamino)propyl)-2-fluoro-N-methylbenzamide], the IC50 is more than 3000 nM.
Consider `CNC(=O)c1ccc(C[C@@H](CNC(=O)C[C@H](c2ccc(C)nc2)C2(C(F)(F)F)CC2)N(C)C)c(Cl)c1` [Compound 113, 3-chloro-4-((S)-2-(dimethylamino)-3-((R)-3-(6-methylpyridin-3-yl)-3-(1-(trifluoromethyl)cyclopropyl)propanamido)propyl)-N-methylbenzamide], for which the IC50 was less than 300 nM.
Still for that read-out and setting: the figure for `CNC(=O)c1ccc(C[C@@H](CNC(=O)C[C@H](c2cncc(Cl)c2)C2(C(F)(F)F)CC2)N(C)C)c(Cl)c1` [Compound 114, 3-chloro-4-((S)-3-((R)-3-(5-chloropyridin-3-yl)-3-(1-(trifluoromethyl)cyclopropyl)propanamido)-2-(dimethylamino)propyl)-N-methylbenzamide] is less than 300 nM.
On to `CNC(=O)c1ccc(C[C@@H](CNC(=O)CC(c2ccc(OC)nc2)C2(C(F)(F)F)CC2)N(C)C)c(Cl)c1` (stereo partly drawn) [Compound 115, 3-chloro-4-((2S)-2-(dimethylamino)-3-(3-(6-methoxypyridin-3-yl)-3-(1-(trifluoromethyl)cyclopropyl)propanamido)propyl)-N-methylbenzamide], for which the IC50 under setting [2] lay within 300 to 3000 nM.
Turning to `CNC(=O)c1ccc(C[C@@H](CNC(=O)CC(c2cncc(F)c2)C2(C(F)(F)F)CC2)N(C)C)c(Cl)c1` (some centres unmarked) [Compound 116], the IC50 was less than 300 nM.
Same read-out and setting: the figure for `CNC(=O)c1ccc(C[C@@H](CNC(=O)CC(c2cncc(OC)c2)C2(C(F)(F)F)CC2)N(C)C)c(Cl)c1` (stereo partly drawn) [Compound 117, 3-chloro-4-((2S)-2-(dimethylamino)-3-(3-(5-methoxypyridin-3-yl)-3-(1-(trifluoromethyl)cyclopropyl)propanamido)propyl)-N-methylbenzamide] is more than 3000 nM.
On to `CNC(=O)c1ccc(C[C@@H](CNC(=O)CC(c2cc(C)ccn2)C2(C(F)(F)F)CC2)N(C)C)c(Cl)c1` (stereo partly drawn) [Compound 118, 3-chloro-4-((2S)-2-(dimethylamino)-3-(3-(4-methylpyridin-2-yl)-3-(1-(trifluoromethyl)cyclopropyl)propanamido)propyl)-N-methylbenzamide], for which the 50% inhibitory concentration (IC50) is more than 3000 nM.
On to `CNC(=O)c1ccc(C[C@@H](CNC(=O)CC(c2cccnc2)C2(C(F)(F)F)CC2)N(C)C)c(Cl)c1` (stereo partly drawn) [Compound 119, 3-chloro-4-((2S)-2-(dimethylamino)-3-(3-(pyridin-3-yl)-3-(1-(trifluoromethyl)cyclopropyl)propanamido)propyl)-N-methylbenzamide], for which the 50% inhibitory concentration (IC50) was less than 300 nM.
On the same count and under the same terms, the same measure for `CNC(=O)c1ccc(C[C@@H](CNC(=O)CC(c2ncccc2F)C2(C(F)(F)F)CC2)N(C)C)c(Cl)c1` (stereo partly drawn) [Compound 120, 3-chloro-4-((2S)-2-(dimethylamino)-3-(3-(3-fluoropyridin-2-yl)-3-(1-(trifluoromethyl)cyclopropyl)propanamido)propyl)-N-methylbenzamide]: less than 300 nM.
On to `CNC(=O)c1ccc(C[C@@H](CNC(=O)CC(c2ccc(F)cn2)C2(C(F)(F)F)CC2)N(C)C)c(Cl)c1` (stereo partly drawn) [Compound 121, 3-chloro-4-((2S)-2-(dimethylamino)-3-(3-(5-fluoropyridin-2-yl)-3-(1-(trifluoromethyl)cyclopropyl)propanamido)propyl)-N-methylbenzamide], for which the IC50 was less than 300 nM.
Same read-out and setting: the figure for `CNC(=O)c1ccc(C[C@@H](CNC(=O)CC(c2ccc(Cl)cn2)C2(C(F)(F)F)CC2)N(C)C)c(Cl)c1` (stereo partly drawn) [Compound 122, 3-chloro-4-((2S)-3-(3-(5-chloropyridin-2-yl)-3-(1-(trifluoromethyl)cyclopropyl)propanamido)-2-(dimethylamino)propyl)-N-methylbenzamide] is less than 300 nM.
